Where a SMILES comes first, the peptide text is derived from it. Bridges are numbered along the chain shown (N, C = ends).
Legend:
[1] = test system: KV4.2/T282P mutant (T280P in text); assay: Whole-cell patch clamp, KV4.2/T282P (text: KV4.2/T280P) (with hKChIP1) in CHO-K1 cells; type: cell-based, rat
Protocol: (§1) The cDNA of hKV1.1, hKV1.3, rKV1.4, hKV1.5, rKV2.1, hKV3.1–3.4, mKV4.1, rKV4.2, and rKV4.3 were subcloned in the eukaryotic expression vector pCDNA3.1 or pCMV-blank. Channel mutants were made by a site-directed mutation method. Briefly, a pair of oppositely directed primers with 15 bp overlap at their 5′ ends and the designed mutation site were used to amplify the parental channel plasmid, then the PCR mix was treated with DpnI to remove the template. 10 μL digestion mix was directly used to transform 100 μL DH5α chemical competent cells. The correct mutation made by this procedure was finally confirmed by DNA sequencing. CHO-K1 cells (ATCC® CCL-61™) were grown in DMEM-F12 mixed medium (1:1) supplemented with 10% FBS and maintained in standard conditions (saturated humidity, 37°C, 5% CO2). Channel plasmid was co-transfected with pEGFP-N1 (encodes the green fluoresence protein) into CHO-K1 cells using lipofectamine 2000 following the manufacturer’s instructions. 4–6 h after transfection, cells were seeded onto poly-lysine (PLL) coated coverslips, and 24–36 h later, transfected cells were ready for patch-clamp analysis. It should be note that KV4.2 and its mutants were also co-expressed with hKChIP1 to promote their functional expressions.
Whole-cell patch clamp recording was performed in an electrophysiology platform equipped with MultiClamp 700B amplifier and Axon Digidata 1550 AD/DA convertor (Axon Instruments, Irvine, CA, United States). Data were acquired using the pClamp software (Axon Instruments, Irvine, CA, United States). All experiments were performed at room temperature. The bath solution contains (in mM): 140 NaCl, 5 KCl, 1 MgCl2, 2 CaCl2, 10 glucose, and 10 HEPES (pH = 7.3). The pipette solution contains (in mM): 140 KCl, 2.5 MgCl2, 11 EGTA, and 10 HEPES (pH = 7.3). Series resistance was kept below 10 MΩ and compensated to 80%. The concentration–response curves were fitted by a Hill logistic equation to estimate the potency (IC50) of the toxin. The whole cell conductance (G) at each depolarizing voltage (V) was determined using the equation: G = I/(V−Vrev), where I and Vrev represents the current amplitude and the reversal potential, respectively. In the present study, Vrev for K^+ current is determined to be −85.61 mV using the Nernst equation. G-V curve was obtained by plotting the normalized G as a function of V and fitted by the Boltzmann equation: y = 1/{1 + exp [(Va−V)/K]}, in which Va, V, and K represents half-maximum activation voltage, test voltage and slope factor, respectively. The steady-state fast inactivation of KV4 channels was measured using a classical two-pulses protocol: cell was held at −120 mV, and a train of conditional voltages (−120–40 mV, in 10 mV increment, 1,000 ms) were applied to induce channel inactivation, followed by a +60 mV test pulse (300 ms) to assess the proportion of non-inactivated channels; the sweep interval was set to 10 s. […] Gating currents of KV4.1–4.3 channels were measured as previously reported ([Tilley et al., 2019]). […]
(§2) Data were presented as MEAN ± SEM, n represents the number of separate experimental cells. Data were analyzed using the software Clampfit 10.5 (Axon Instruments, Irvine, CA, United States), Graphpad Prism 5.01 (GraphPad Software, La Jolla, CA, United States) and Excel 2010 (Microsoft Corporation, Redmond, WA, United States). […]

[2] = test system: KV4.2/D281K mutant; assay: Whole-cell patch clamp, KV4.2/D281K (with hKChIP1) in CHO-K1 cells; type: cell-based, rat
Protocol: as §1
(§3) Whole-cell patch clamp recording was performed in an electrophysiology platform equipped with MultiClamp 700B amplifier and Axon Digidata 1550 AD/DA convertor (Axon Instruments, Irvine, CA, United States). Data were acquired using the pClamp software (Axon Instruments, Irvine, CA, United States). All experiments were performed at room temperature. The bath solution contains (in mM): 140 NaCl, 5 KCl, 1 MgCl2, 2 CaCl2, 10 glucose, and 10 HEPES (pH = 7.3). The pipette solution contains (in mM): 140 KCl, 2.5 MgCl2, 11 EGTA, and 10 HEPES (pH = 7.3). Series resistance was kept below 10 MΩ and compensated to 80%. The concentration–response curves were fitted by a Hill logistic equation to estimate the potency (IC50) of the toxin. The whole cell conductance (G) at each depolarizing voltage (V) was determined using the equation: G = I/(V−Vrev), where I and Vrev represents the current amplitude and the reversal potential, respectively. In the present study, Vrev for K^+ current is determined to be −85.61 mV using the Nernst equation. G-V curve was obtained by plotting the normalized G as a function of V and fitted by the Boltzmann equation: y = 1/{1 + exp [(Va−V)/K]}, in which Va, V, and K represents half-maximum activation voltage, test voltage and slope factor, respectively. The steady-state fast inactivation of KV4 channels was measured using a classical two-pulses protocol: cell was held at −120 mV, and a train of conditional voltages (−120–40 mV, in 10 mV increment, 1,000 ms) were applied to induce channel inactivation, followed by a +60 mV test pulse (300 ms) to assess the proportion of non-inactivated channels; the sweep interval was set to 10 s. Currents at the test pulse (I) were normalized to the maximum value (Imax) and plotted as a function of the conditional voltage (V), the curve was fitted by the Boltzmann equation: I/Imax = A + (1−A)/{1 + exp [(V−Vh)/K]}, where Vh is the half-maximum inactivation voltage, A represents the minimum channel availability, and K is the slope factor. Gating currents of KV4.1–4.3 channels were measured as previously reported ([Tilley et al., 2019]). Briefly, the ionic pore currents were abolished by replacing K^+ with NMDG^+ in the pipette solution, and 10 µM Cs^+ was present in the bath solution to occupy the selectivity filter of KV channels to prevent decay of the gating currents during recording.
as §2

[3] = test system: KV4.3/T277P mutant; assay: Whole-cell patch clamp, KV4.3/T277P in CHO-K1 cells; type: cell-based, rat
Protocol: as §1, §3, §2

[4] = test system: KV4.1/279LF/AA mutant; assay: Whole-cell patch clamp, KV4.1/279LF/AA in CHO-K1 cells; type: cell-based, mouse; conditions: KV4.1/279LF/AA at Va depolarizing voltage, n = 5–7
Protocol: (§4) The cDNA of hKV1.1, hKV1.3, rKV1.4, hKV1.5, rKV2.1, hKV3.1–3.4, mKV4.1, rKV4.2, and rKV4.3 were subcloned in the eukaryotic expression vector pCDNA3.1 or pCMV-blank. Channel mutants were made by a site-directed mutation method. Briefly, a pair of oppositely directed primers with 15 bp overlap at their 5′ ends and the designed mutation site were used to amplify the parental channel plasmid, then the PCR mix was treated with DpnI to remove the template. 10 μL digestion mix was directly used to transform 100 μL DH5α chemical competent cells. The correct mutation made by this procedure was finally confirmed by DNA sequencing. […] 4–6 h after transfection, cells were seeded onto poly-lysine (PLL) coated coverslips, and 24–36 h later, transfected cells were ready for patch-clamp analysis. […]
(§5) Whole-cell patch clamp recording was performed in an electrophysiology platform equipped with MultiClamp 700B amplifier and Axon Digidata 1550 AD/DA convertor (Axon Instruments, Irvine, CA, United States). […] The whole cell conductance (G) at each depolarizing voltage (V) was determined using the equation: G = I/(V−Vrev), where I and Vrev represents the current amplitude and the reversal potential, respectively. In the present study, Vrev for K^+ current is determined to be −85.61 mV using the Nernst equation. […] Gating currents of KV4.1–4.3 channels were measured as previously reported ([Tilley et al., 2019]). […]

[5] = test system: KV4.3/274LV/AA mutant; assay: Whole-cell patch clamp, KV4.3/274LV/AA in CHO-K1 cells; type: cell-based, rat; conditions: KV4.3/274LV/AA at Va depolarizing voltage, n = 5–7
Protocol: as §4, §5

[6] = test system: KV4.1/V281M mutant; assay: Whole-cell patch clamp, KV4.1/V281M in CHO-K1 cells; type: cell-based, mouse; conditions: +30 mV, n = 5
Protocol: as §4, §5

[7] = test system: KV1.4 channel (rKV1.4); assay: Whole-cell patch clamp selectivity, KV1.4; type: cell-based, rat; conditions: KV1.4, 10 µM, n = 5
Protocol: as §4, §5

[8] = test system: KV2.1 channel (rKV2.1); assay: Whole-cell patch clamp selectivity, KV2.1; type: cell-based, rat; conditions: KV2.1, 10 µM, n = 5
Protocol: as §4, §5

[9] = test system: KV3.1 channel (hKV3.1); assay: Whole-cell patch clamp selectivity, KV3.1; type: cell-based, human; conditions: KV3.1, 10 µM, n = 5
Protocol: as §4, §5

[10] = test system: KV4.2 channel gating currents; assay: Gating current recording, KV4.2; type: cell-based, rat
Protocol: as §4, §5

[11] = 10 μM κ-LhTx-1, KV4.2/T282P, G-V, mean ± SEM, n = 5
[12] = 10 μM κ-LhTx-1, KV4.2/T282P, two-pulse protocol, mean ± SEM, n = 5
[13] = 10 μM κ-LhTx-1, G-V, mean ± SEM, n = 6
[14] = 10 μM κ-LhTx-1, two-pulse protocol, mean ± SEM, n = 6
[15] = Va shift by 10 μM κ-LhTx-1 vs control, mean ± SEM
[16] = Vh shift by 10 μM κ-LhTx-1 vs control, mean ± SEM

SMILES: CC[C@H](C)[C@@H]1NC(=O)[C@H](CCC(N)=O)NC(=O)[C@@H]2CSSC[C@@H]3NC(=O)[C@H](CC(C)C)NC(=O)[C@H](CC(N)=O)NC(=O)[C@H](CCSC)NC(=O)[C@H](Cc4c[nH]c5ccccc45)NC(=O)[C@H](CO)NC(=O)[C@H](C)NC(=O)[C@@H](NC(=O)[C@H](CCC(=O)O)NC(=O)[C@H](CCC(N)=O)NC(=O)[C@H](C)NC(=O)[C@H](CC(=O)O)NC(=O)[C@@H](N)CCC(=O)O)CSSC[C@H](NC(=O)[C@H](CSSC[C@@H](C(=O)N[C@@H](CCCCN)C(=O)N[C@@H](Cc4ccc(O)cc4)C(=O)N[C@@H](CCCCN)C(=O)N[C@@H](CC(C)C)C(N)=O)NC(=O)[C@H](Cc4c[nH]c5ccccc45)NC1=O)NC(=O)[C@H](CCCCN)NC(=O)[C@H](CCCCN)NC(=O)[C@H](CCC(=O)O)NC(=O)CNC3=O)C(=O)N[C@@H](CCC(=O)O)C(=O)NCC(=O)N[C@@H](Cc1ccc(O)cc1)C(=O)N[C@@H](C(C)C)C(=O)N2 [κ-LhTx-1] (H-EDAQECASWMNLCGEKKCCEGYVCQIWCKYKL-NH2; disulfide 6-19, 13-24, 18-28 (inferred); N-terminus and C-terminus assumed)
- Va (steady-state activation) [1, 11]: 16.93 ± 2.90 mV
- k, slope factor (steady-state activation) [1, 11]: 25.61 ± 0.68 mV
- Vh (steady-state inactivation) [1, 12]: -71.72 ± 3.71 mV
- k, slope factor (steady-state inactivation) [1, 12]: 5.86 ± 0.21 mV
- toxin inhibition ([1]; KV4.2/T280P, 10 μM, all voltages, n = 5–6): resistant to toxin inhibition at all voltages
- Va (steady-state activation) [2, 13]: 61.96 ± 1.96 mV
- k, slope factor (steady-state activation) [2, 13]: 18.73 ± 0.70 mV
- Vh (steady-state inactivation) [2, 14]: -27.43 ± 2.53 mV
- k, slope factor (steady-state inactivation) [2, 14]: 15.24 ± 1.42 mV
- voltage-dependence of inhibition vs parental KV4.2 ([2]; 10 μM, still greater than in KV4.1): much less voltage-dependence
- ∆Va (steady-state activation) [2, 15]: 68.10 ± 2.92 mV
- ∆Vh (steady-state inactivation) [2, 16]: 33.23 ± 2.95 mV
- Va (steady-state activation) [3, 13]: 49.17 ± 0.88 mV
- k, slope factor (steady-state activation) [3, 13]: 22.21 ± 1.64 mV
- Vh (steady-state inactivation) [3, 14]: -35.46 ± 1.68 mV
- k, slope factor (steady-state inactivation) [3, 14]: 8.50 ± 0.42 mV
- inhi%(min) vs wild-type KV4.3 ([3]; 10 μM, +100 mV): significantly elevated inhi%(min) value
- ∆Va (steady-state activation) [3, 15]: 40.47 ± 2.79 mV
- ∆Vh (steady-state inactivation) [3, 16]: 11.63 ± 2.17 mV
- effect of mutation on toxin inhibition [4]: profoundly weakened the effect
- effect of mutation on toxin inhibition [5]: profoundly weakened the effect
- potency vs wild-type KV4.1 [6]: only slightly reduced κ-LhTx-1 potency
- effect on currents [7]: did not remarkably affect the currents
- effect on currents [8]: did not remarkably affect the currents
- effect on currents [9]: did not remarkably affect the currents
- inhibition of gating charge (Q) movement, 500 nM vs 10 µM ([10]; KV4.2, holding −100 mV, 20 ms to +30 mV, n = 5–6): inhibited essentially the same proportion of gating charge movement
- gating current inhibition ([10]; KV4.2, n = 5–6): inhibited the gating currents
